Results on 8 compounds are retold here after ChEMBL document CHEMBL2331125, “Anthraquinone Derivatives as Potent Inhibitors of c-Met Kinase and the Extracellular Signaling Pathway” (ACS Med Chem Lett, 2013).

Active and inactive are the calls of the source. The rule behind the calls is not given here.

For the test, the target named is Hepatocyte growth factor receptor (Mus musculus) (UniProt P16056). Kind of test: Inhibition of TPR-Met phosphorylation in mouse BAF3 cells at 10 uM after 2 hrs by Western blot analysis. Format: cell-based. (In general: In western blotting, separated proteins are transferred to a membrane and probed.)
Sequence of Hepatocyte growth factor receptor (Mus musculus) (P16056 whole entry): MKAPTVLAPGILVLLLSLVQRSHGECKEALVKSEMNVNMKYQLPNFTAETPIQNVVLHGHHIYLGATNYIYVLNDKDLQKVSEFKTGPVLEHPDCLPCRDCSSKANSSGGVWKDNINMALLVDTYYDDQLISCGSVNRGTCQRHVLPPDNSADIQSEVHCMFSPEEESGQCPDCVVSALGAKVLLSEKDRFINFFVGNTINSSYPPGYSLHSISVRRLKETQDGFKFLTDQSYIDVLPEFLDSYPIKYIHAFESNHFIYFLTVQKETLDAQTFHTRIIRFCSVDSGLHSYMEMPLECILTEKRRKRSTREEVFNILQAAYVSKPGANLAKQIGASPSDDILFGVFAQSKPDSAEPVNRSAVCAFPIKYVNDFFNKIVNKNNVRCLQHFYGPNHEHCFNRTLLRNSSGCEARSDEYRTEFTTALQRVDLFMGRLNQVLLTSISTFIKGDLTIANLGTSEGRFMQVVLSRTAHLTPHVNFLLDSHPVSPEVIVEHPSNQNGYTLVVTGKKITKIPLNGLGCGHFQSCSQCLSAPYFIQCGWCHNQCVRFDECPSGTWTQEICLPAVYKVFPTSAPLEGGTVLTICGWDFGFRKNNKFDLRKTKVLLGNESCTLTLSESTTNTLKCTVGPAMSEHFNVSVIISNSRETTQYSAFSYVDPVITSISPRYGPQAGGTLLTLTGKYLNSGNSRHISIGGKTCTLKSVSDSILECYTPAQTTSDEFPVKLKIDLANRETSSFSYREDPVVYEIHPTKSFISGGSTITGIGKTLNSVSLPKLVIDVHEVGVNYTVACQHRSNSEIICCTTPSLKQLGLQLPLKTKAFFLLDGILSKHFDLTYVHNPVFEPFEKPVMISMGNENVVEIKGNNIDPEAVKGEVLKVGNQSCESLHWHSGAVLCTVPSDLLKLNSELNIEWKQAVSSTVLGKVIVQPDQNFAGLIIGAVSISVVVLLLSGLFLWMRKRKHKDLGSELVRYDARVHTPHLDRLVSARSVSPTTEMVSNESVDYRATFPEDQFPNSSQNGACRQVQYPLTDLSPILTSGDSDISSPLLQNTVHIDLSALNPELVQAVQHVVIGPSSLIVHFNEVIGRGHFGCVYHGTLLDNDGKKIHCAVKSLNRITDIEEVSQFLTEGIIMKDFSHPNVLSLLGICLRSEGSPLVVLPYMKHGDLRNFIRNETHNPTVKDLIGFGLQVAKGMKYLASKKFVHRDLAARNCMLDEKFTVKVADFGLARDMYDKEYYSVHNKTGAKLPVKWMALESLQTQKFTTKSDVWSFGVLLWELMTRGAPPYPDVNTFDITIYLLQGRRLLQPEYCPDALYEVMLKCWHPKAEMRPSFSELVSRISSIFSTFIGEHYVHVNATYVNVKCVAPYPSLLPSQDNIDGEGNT

Regarding `Nc1c(S(=O)(=O)O)cc(Nc2ccc(-c3ccc(Nc4ncccn4)cc3)cc2)c2c1C(=O)c1ccccc1C2=O`, the inhibition entry is “inactive”.

As to `Cc1cc(-c2ccc(Nc3cc(S(=O)(=O)O)c(N)c4c3C(=O)c3ccccc3C4=O)c(C)c2)ccc1Nc1cc(S(=O)(=O)O)c(N)c2c1C(=O)c1ccccc1C2=O`, the inhibition result was “inactive”.

`CC(=O)Nc1ccc(-c2ccc(Nc3cc(S(=O)(=O)O)c(N)c4c3C(=O)c3ccccc3C4=O)cc2)cc1`: the inhibition entry is “inactive”.

Regarding `Cc1cc(-c2ccc(Nc3cc(S(=O)(=O)O)c(N)c4c3C(=O)c3ccccc3C4=O)c(C)c2)ccc1N`, the inhibition entry is “inactive”.

For the compound `Nc1c(S(=O)(=O)O)cc(Nc2ccc(Cc3ccc(Nc4cc(S(=O)(=O)O)c(N)c5c4C(=O)c4ccccc4C5=O)cc3)cc2)c2c1C(=O)c1ccccc1C2=O`, the inhibition entry is “inactive”.

As to `Cc1cc(Nc2cc(S(=O)(=O)O)c(N)c3c2C(=O)c2ccccc2C3=O)ccc1-c1ccc(Nc2cc(S(=O)(=O)O)c(N)c3c2C(=O)c2ccccc2C3=O)cc1C`, the inhibition entry was “inactive”.

`Nc1ccc(-c2ccc(Nc3cc(S(=O)(=O)O)c(N)c4c3C(=O)c3ccccc3C4=O)cc2)cc1`: the inhibition entry is “inactive”.

As for `Nc1c(S(=O)(=O)O)cc(Nc2ccc(-c3ccc(Nc4cc(S(=O)(=O)O)c(N)c5c4C(=O)c4ccccc4C5=O)cc3)cc2)c2c1C(=O)c1ccccc1C2=O`, the inhibition entry is “inactive”.
